Patent US20260001928A1 (CORTERIA PHARMACEUTICALS, priority 2022, published 2026)
*1 amine or outer side, *2 acyl side, *3 side chain or, on linkers, in order; H or OH if unused. Where a SMILES comes first, the peptide text is derived from it. Side-chain parts run from the residue outwards. [ ]: non-standard residue; d: D form. The star is where a group is joined. C16 diacid = O=C(O)CCCCCCCCCCCCCCC(=O)*; γGlu = O=C(O)[C@H](CCC(=O)[*:2])N[*:1]; αMeL = CC(C)C[C@](C)(N)C(=O)O; AEEA = NCCOCCOCC(=O)O; Aib = CC(C)(N)C(=O)O

How the values were obtained:
CFR1R receptor = target: T1, CFR1R receptor (Homo sapiens, UniProt P34998); assay: Activity at anti-target CFR1R receptor, cAMP assay in CRF1R-overexpression CHO-K1 cells; assay type: cell-based; conditions: 100% = Sauvagine at 100 nM; for EC50: cAMP
T1 construct: host or cells: CHO-K1 (clone 2)
T1 sequence (P34998 24-415): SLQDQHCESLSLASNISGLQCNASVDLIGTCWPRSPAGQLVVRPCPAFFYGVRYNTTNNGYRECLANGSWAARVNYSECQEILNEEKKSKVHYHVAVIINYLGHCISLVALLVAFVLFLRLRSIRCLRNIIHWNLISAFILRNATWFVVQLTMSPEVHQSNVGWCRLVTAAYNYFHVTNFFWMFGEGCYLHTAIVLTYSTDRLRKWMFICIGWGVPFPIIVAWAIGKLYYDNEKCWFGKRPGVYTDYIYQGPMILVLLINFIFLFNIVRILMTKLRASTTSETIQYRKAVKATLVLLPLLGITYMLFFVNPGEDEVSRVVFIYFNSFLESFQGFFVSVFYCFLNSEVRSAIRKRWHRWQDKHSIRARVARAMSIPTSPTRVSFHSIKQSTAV
Summary of the method: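 cAMP readout in CRF1R-overexpressing CHO-K1 cells (clone 2), run as for the TeloHAEC assay at 4000 cells/well final. Cells came from cryopreserved banks. Sauvagine at 100 nM defined 100% activation.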

human CRF2a receptor = target: T2, human CRF2a receptor (Homo sapiens, UniProt Q13324); assay: Activity at human CRF2a receptor, cAMP functional assay in TeloHEAC cells; assay type: cell-based; conditions: TeloHEAC cells stably expressing human CRF2a receptor, relative to urocortin 2 (100 nM = 100%)
T2 construct: expressed in transfected cells; host or cells: TeloHEAC cells
T2 sequence (Q13324 1-411): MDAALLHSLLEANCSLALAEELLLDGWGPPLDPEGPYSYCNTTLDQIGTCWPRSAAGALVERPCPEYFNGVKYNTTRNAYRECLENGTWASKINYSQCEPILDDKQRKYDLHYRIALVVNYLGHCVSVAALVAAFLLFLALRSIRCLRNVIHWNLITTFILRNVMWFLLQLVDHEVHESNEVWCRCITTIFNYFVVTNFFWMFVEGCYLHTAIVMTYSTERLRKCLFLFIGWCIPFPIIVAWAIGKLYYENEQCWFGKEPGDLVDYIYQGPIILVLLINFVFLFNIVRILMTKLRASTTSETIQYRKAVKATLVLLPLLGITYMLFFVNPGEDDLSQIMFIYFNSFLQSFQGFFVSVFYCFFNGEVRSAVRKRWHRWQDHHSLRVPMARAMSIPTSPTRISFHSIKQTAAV
Summary of the method: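 TeloHEAC cells stably expressing human CRF2a (10000 cells/well) were treated with 16-point 1:2 compound dilutions in HBSS/20 mM HEPES with IBMX for 30 min at 37° C. cAMP was read by HTRF (665/620 nm ratio). EC50 was the concentration giving 50% activation, with 100 nM urocortin 2 set as 100%.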

| Structure (SMILES) | Emax (% I) (CFR1R receptor) | EC50 (CFR1R receptor) | EC50 (human CRF2a receptor) |
| --- | --- | --- | --- |
| CC[C@H](C)[C@H](NC(=O)[C@H](CCC(N)=O)NC(=O)C(C)(C)NC(=O)[C@H](CC(N)=O)NC(=O)[C@@H](NC(=O)[C@H](CCC(=O)O)NC(=O)[C@H](C)NC(=O)[C@H](CCC(N)=O)NC(=O)[C@H](CCC(=O)O)NC(=O)[C@H](CCCNC(=N)N)NC(=O)[C@H](CCC(N)=O)NC(=O)[C@H](CCCCN)NC(=O)[C@H](CCCCN)NC(=O)[C@H](CCC(N)=O)NC(=O)[C@H](CCCCN)NC(=O)[C@H](CCC(=O)O)NC(=O)[C@H](CCC(N)=O)NC(=O)[C@H](CCC(=O)O)NC(=O)[C@H](CC(C)C)NC(=O)[C@H](CC(C)C)NC(=O)[C@@H](NC(=O)[C@H](CCCCN)NC(=O)[C@H](CCCCNC(=O)CC[C@H](NC(=O)CCCCCCCCCCCCCCC(=O)O)C(=O)O)NC(=O)[C@](C)(CC(C)C)NC(=O)[C@H](CCCCN)NC(=O)[C@@H](NC(=O)[C@@H]1CCCN1C(=O)[C@H](NC(=O)[C@H](CC(=O)O)NC(=O)[C@H](CC(C)C)NC(=O)[C@H](CO)NC(=O)[C@H](CC(C)C)NC(=O)[C@@H](NC(C)=O)C(C)C)C(C)C)[C@@H](C)CC)[C@@H](C)CC)[C@@H](C)O)C(=O)N[C@@H](CC(C)C)C(=O)N[C@@H](C)C(=O)N[C@@H](CCC(N)=O)C(=O)N[C@H](C(N)=O)C(C)C [compound 46] (Ac-VLSLD[dV]PIK[αMeL]K([γGlu-C16 diacid])KILLEQEKQKKQREQAETN[Aib]QILAQV-NH2) | 6 % I | > 250 nM | 0.7 nM |
| CC[C@H](C)[C@H](NC(C)=O)C(=O)N[C@H](C(=O)N[C@@H](CC(C)C)C(=O)N[C@@H](CO)C(=O)N[C@@H](CC(C)C)C(=O)N[C@@H](CC(=O)O)C(=O)N[C@@H](C(=O)N1CCC[C@H]1C(=O)N[C@H](C(=O)N[C@@H](CCCCN)C(=O)N[C@@H](CC(C)C)C(=O)N[C@@H](CCCCNC(=O)CC[C@H](NC(=O)CCCCCCCCCCCCCCC(=O)O)C(=O)O)C(=O)N[C@@H](CCCCN)C(=O)N[C@H](C(=O)N[C@@H](CC(C)C)C(=O)N[C@@H](CC(C)C)C(=O)N[C@@H](CCC(=O)O)C(=O)N[C@@H](CCC(N)=O)C(=O)N[C@@H](CCC(=O)O)C(=O)N[C@@H](CCCCN)C(=O)N[C@@H](CCC(N)=O)C(=O)N[C@@H](CCCCN)C(=O)N[C@@H](CCCCN)C(=O)N[C@@H](CCC(N)=O)C(=O)N[C@@H](CCCNC(=N)N)C(=O)N[C@@H](CCC(=O)O)C(=O)N[C@@H](CCC(N)=O)C(=O)N[C@@H](C)C(=O)N[C@@H](CCC(=O)O)C(=O)N[C@H](C(=O)N[C@@H](CC(N)=O)C(=O)N[C@H](C(=O)N[C@@H](CCC(N)=O)C(=O)N[C@H](C(=O)N[C@@H](CC(C)C)C(=O)N[C@@H](C)C(=O)N[C@@H](CCC(N)=O)C(=O)N[C@H](C(N)=O)C(C)C)[C@@H](C)CC)C(C)C)[C@@H](C)O)[C@@H](C)CC)[C@@H](C)CC)C(C)C)C(C)C [compound 48] (Ac-IVLSLD[dV]PIKLK([γGlu-C16 diacid])KILLEQEKQKKQREQAETNVQILAQV-NH2) | 4 % I | > 250 nM | 1.35 nM |

The next lines start with the values.

| Emax (% I) (CFR1R receptor) | EC50 (CFR1R receptor) | EC50 (human CRF2a receptor) | Structure (SMILES) |
| --- | --- | --- | --- |
| 1 % I | > 250 nM | 3.08 nM | CC[C@H](C)[C@H](NC(C)=O)C(=O)N[C@H](C(=O)N[C@@H](CC(C)C)C(=O)N[C@@H](CO)C(=O)N[C@@H](CC(C)C)C(=O)N[C@@H](CC(=O)O)C(=O)N[C@@H](C(=O)N1CCC[C@H]1C(=O)N[C@H](C(=O)N[C@@H](CCCCN)C(=O)N[C@@H](CC(C)C)C(=O)N[C@@H](CCCCNC(=O)COCCOCCNC(=O)COCCOCCNC(=O)CC[C@H](NC(=O)CCCCCCCCCCCCCCC(=O)O)C(=O)O)C(=O)N[C@@H](CCCCN)C(=O)N[C@H](C(=O)N[C@@H](CC(C)C)C(=O)N[C@@H](CC(C)C)C(=O)N[C@@H](CCC(=O)O)C(=O)N[C@@H](CCC(N)=O)C(=O)N[C@@H](CCC(=O)O)C(=O)N[C@@H](CCCCN)C(=O)N[C@@H](CCC(N)=O)C(=O)N[C@@H](CCCCN)C(=O)N[C@@H](CCCCN)C(=O)N[C@@H](CCC(N)=O)C(=O)N[C@@H](CCCNC(=N)N)C(=O)N[C@@H](CCC(=O)O)C(=O)N[C@@H](CCC(N)=O)C(=O)N[C@@H](C)C(=O)N[C@@H](CCC(=O)O)C(=O)N[C@H](C(=O)N[C@@H](CC(N)=O)C(=O)NC(C)(C)C(=O)N[C@@H](CCC(N)=O)C(=O)N[C@H](C(=O)N[C@@H](CC(C)C)C(=O)N[C@@H](C)C(=O)N[C@@H](CCC(N)=O)C(=O)N[C@H](C(N)=O)C(C)C)[C@@H](C)CC)[C@@H](C)O)[C@@H](C)CC)[C@@H](C)CC)C(C)C)C(C)C [compound 42] (Ac-IVLSLD[dV]PIKLK([AEEA-AEEA-γGlu-C16 diacid])KILLEQEKQKKQREQAETN[Aib]QILAQV-NH2) |
| 5 % I | > 250 nM | 0.25 nM | CC[C@H](C)[C@H](NC(C)=O)C(=O)N[C@H](C(=O)N[C@@H](CC(C)C)C(=O)N[C@@H](CO)C(=O)N[C@@H](CC(C)C)C(=O)N[C@@H](CC(=O)O)C(=O)N[C@@H](C(=O)N1CCC[C@H]1C(=O)N[C@H](C(=O)N[C@@H](CCCCN)C(=O)N[C@@](C)(CC(C)C)C(=O)N[C@@H](CCCCNC(=O)CC[C@H](NC(=O)CCCCCCCCCCCCCCC(=O)O)C(=O)O)C(=O)N[C@@H](CCCCN)C(=O)N[C@H](C(=O)N[C@@H](CC(C)C)C(=O)N[C@@H](CC(C)C)C(=O)N[C@@H](CCC(=O)O)C(=O)N[C@@H](CCC(N)=O)C(=O)N[C@@H](CCC(=O)O)C(=O)N[C@@H](CCCCN)C(=O)N[C@@H](CCC(N)=O)C(=O)N[C@@H](CCCCN)C(=O)N[C@@H](CCCCN)C(=O)N[C@@H](CCC(N)=O)C(=O)N[C@@H](CCCNC(=N)N)C(=O)N[C@@H](CCC(=O)O)C(=O)N[C@@H](CCC(N)=O)C(=O)N[C@@H](C)C(=O)N[C@@H](CCC(=O)O)C(=O)N[C@H](C(=O)N[C@@H](CC(N)=O)C(=O)NC(C)(C)C(=O)N[C@@H](CCC(N)=O)C(=O)N[C@H](C(=O)N[C@@H](CC(C)C)C(=O)N[C@@H](C)C(=O)N[C@@H](CCC(N)=O)C(=O)N[C@H](C(N)=O)C(C)C)[C@@H](C)CC)[C@@H](C)O)[C@@H](C)CC)[C@@H](C)CC)C(C)C)C(C)C [compound 44] (Ac-IVLSLD[dV]PIK[αMeL]K([γGlu-C16 diacid])KILLEQEKQKKQREQAETN[Aib]QILAQV-NH2) |
| 5 % I | > 250 nM | 0.96 nM | CC[C@H](C)[C@H](NC(=O)[C@H](CCC(N)=O)NC(=O)C(C)(C)NC(=O)[C@H](CC(N)=O)NC(=O)[C@@H](NC(=O)[C@H](CCC(=O)O)NC(=O)[C@H](C)NC(=O)[C@H](CCC(N)=O)NC(=O)[C@H](CCC(=O)O)NC(=O)[C@H](CCCNC(=N)N)NC(=O)[C@H](CCC(N)=O)NC(=O)[C@H](CCCCN)NC(=O)[C@H](CCCCN)NC(=O)[C@H](CCC(N)=O)NC(=O)[C@H](CCCCN)NC(=O)[C@H](CCC(=O)O)NC(=O)[C@H](CCC(N)=O)NC(=O)[C@H](CCC(=O)O)NC(=O)[C@H](CC(C)C)NC(=O)[C@H](CC(C)C)NC(=O)[C@@H](NC(=O)[C@H](CCCCN)NC(=O)[C@H](CCCCNC(=O)CC[C@H](NC(=O)CCCCCCCCCCCCCCC(=O)O)C(=O)O)NC(=O)[C@H](CC(C)C)NC(=O)[C@H](CCCCN)NC(=O)[C@@H](NC(=O)[C@@H]1CCCN1C(=O)[C@H](NC(=O)[C@H](CC(=O)O)NC(=O)[C@H](CC(C)C)NC(=O)[C@H](CO)NC(=O)[C@H](CC(C)C)NC(=O)[C@@H](NC(C)=O)C(C)C)C(C)C)[C@@H](C)CC)[C@@H](C)CC)[C@@H](C)O)C(=O)N[C@@H](CC(C)C)C(=O)N[C@@H](C)C(=O)N[C@@H](CCC(N)=O)C(=O)N[C@H](C(N)=O)C(C)C [compound 45] (Ac-VLSLD[dV]PIKLK([γGlu-C16 diacid])KILLEQEKQKKQREQAETN[Aib]QILAQV-NH2) |
